Measured values published in patent US11485700B2, “Synthesis of (+)-cannabinoids and their therapeutic effects” (SYMRISE AG, priority 2018, dated 2022).
Read-outs that look alike come from different tables or passages of the source.

Tests used:
[1] = tested on: IL-1-treated human dermal fibroblasts; test: IL-1-induced inflammatory parameters in human dermal fibroblasts; type: cell-based; details: IL-1beta 10 U/ml, 24 h; for inhibition of IL-1-induced PGE2 / inhibition of IL-1-stimulated IL-6 release / inhibition of IL-1-stimulated IL-8 release: maximal effect, doses up to 25 μM
Experimental: (§1) Cell cultures: Human primary monocytes were extracted from the whole blood of medically healthy volunteers, who provided written informed consent at the local blood bank (University Hospital of Freiburg, Germany), following a standardized protocol (gradient preparation, Lymphocytes separation medium, PAN Biotech, P04-60125, Aidenbach, Germany) using completely endotoxin-free cultivation. Using 50 ml tubes, 25 ml Pancoll was loaded with 25 ml of blood (buffy coats). The gradient was established by centrifugation at 1800 rpm, 20° C. for 40 min with slow acceleration and deceleration. Peripheral blood mononuclear cells in the interphase were carefully removed and re-suspended in 50 ml pre-warmed phosphate-buffered saline (PBS) (Pan Biotech, P04-36500), followed by centrifugation for 10 min at 1600 rpm and 20° C. The supernatant was discarded and the pellet washed in 50 ml PBS and centrifuged as described above. The pellet was then re-suspended in 50 ml RPMI-1640 low-endotoxin medium supplemented with 10% human serum (Hexcell, Berlin, Germany, SP2080). After counting the number of cells in a particle counter (Euro Diagnostics, Krefeld, Germany), cells were seeded in 24-well plates for enzyme linked immunosorbent assay (ELISA) (2.2 mio. cells/well) or 96-well plates at a density of 2×10^4 cells/well for cell viability testing, and incubated at 37° C. with 5% CO2. The medium and the non-adherent cells (lymphocytes) were removed and fresh RPMI-1640 medium containing 1% human serum added. Enriched monocytes were then ready to be used for the experiments. Primary human fibroblasts and HaCat keratinocytes were obtained from the Uniklinik Freiburg. All cells were maintained in supplemented DMEM (Invitrogen, Life-Technologies, Darmstadt, Germany) medium containing 10% FBS (Bio&Sell, Feucht, Germany) and 1% antibiotics penicillin/streptomycin (from Invitrogen, DMEM complete medium) at 37° C. in a humidified atmosphere of 5% CO2.
Determination of inflammatory molecules in fibroblasts: Primary human fibroblasts were cultivated as described above and seeded (500000 cells/well) in 24-well plates. Cells were incubated with IL-1beta (Roche, Mannheim, Germany, 10 U/ml) in absence and presence of the cannabinoids (5 doses, n=3) for 24 h. Unstimulated cells served as a negative control. 24 h after cell stimulation, supernatants were removed, centrifuged and investigated for IL-6, PGE2, and IL-8 concentrations by ELISAs according to the manufacturer's protocol (PGE2 from Cayman/Biomol, Hamburg, Germany; IL-6, and IL-8 from Immuno-tools, Frisoythe, Germany). The respective extinction is determined using a 96-well plate reader (Berthold, Offenburg, Germany).

CB2 receptor = CB2 receptor (Homo sapiens (Human), UniProt P34972); test: In vitro binding to CB2 receptor, [3H]-CP55940 radioligand displacement
Experimental: (§2) Compounds with an expected profile as CB1 and/or CB2 receptor ligands were evaluated by competition studies that allow determining the affinity of these compounds (Ki values) for both receptors against a classical cannabinoid ligand. The competition studies were conducted with membranes transfected with either CB1 or CB2 receptors. For stock solutions the compounds were dissolved at concentrations of 50 and 100 mM and stored at −20° C.
(§3) 96-well plates and the tubes necessary for the experiment were siliconized with Sigmacote (Sigma). Membranes were resuspended in the corresponding buffer and were incubated with the radioligand and each compound for 90 min at 30° C. Non-specific binding was determined with 10 μM WIN55212-2 and 100% binding of the radioligand to the membrane was determined by its incubation with membrane and without any compound. Filtration was performed by a Harvester®filtermate (Perkin-Elmer) with Filtermat A GF/C filters pretreated with polyethylenimine 0.05%. After filtering, the filter was washed nine times with binding buffer, dried and a melt-on scintillation sheet (Meltilex™ A, Perkin Elmer) was melted onto it. Then, radioactivity was quantified by a liquid scintillation spectrophotometer (Wallac MicroBeta Trilux, Perkin-Elmer).
(§4) Radioligand displacement assays were used to evaluate the affinity of the new compounds using membranes from cells (HEK293EBNA) transfected with the CB1 or the CB2 receptors and [^3H]-CP55940 as radioligand. The evaluation of the compounds was conducted in two phases. The first phase consisted in a simple screening with a unique and high concentration of each compound (40 μM). The data was collected from at least three experiments performed in triplicate. […] This consisted of a competition study with [^3H]CP55940 (0.10 nM for CB1 and 0.15 nM for CB2) and different concentrations of the selected compounds (10^−4-10^−11M). The data was analyzed, by using GraphPad Prism® version 5.01 (GraphPad Software Inc., San Diego, Calif., USA), for the calculation of Ki values expressed as mean±SEM of at least three experiments performed in triplicate for each point.

[2] = tested on: PolyIC-treated human keratinocytes (HaCat); test: Poly I:C-induced proteases in human HaCat keratinocytes; type: cell-based; details: Poly I:C 10 μg/ml, 24 h; for inhibition at 25 µM: Homo sapiens, HaCaT; for inhibition of Poly I:C-stimulated TIMP1: maximal effect, doses up to 25 μM
Experimental: as §1
Determination of MMPs and TIMPs in keratinocytes: Keratinocytes (HaCat) were cultivated as described above. Cells were seeded in 24-well plates incubated with Poly I:C (InvivoGen, San Diego, Calif.; USA, 10 μg/ml) in absence and presence of the cannabinoids (5 doses, n=3) for 24 h. Unstimulated cells served as a negative control. 24 h after cell stimulation, supernatants were removed, centrifuged and investigated for MMP1, MMP9 and TIMP1 concentrations by ELISAs according to the manufacturer's protocol (from Biotechne, Wiesbaden, Germany). The respective extinction was determined using a 96-well plate reader (Berthold, Offenburg, Germany).

CB1 receptor = CB1 receptor (Homo sapiens (Human), UniProt P21554); test: In vitro binding to CB1 receptor, [3H]-CP55940 radioligand displacement
Experimental: as §2, §3, §4

[3] = tested on: LPS-treated human monocytes; test: LPS-induced inflammatory parameters in human monocytes; type: cell-based; details: for inhibition at 25 µM: Homo sapiens, Monocyte, maximal effect at 25 μM
Experimental: as §1
Measurement of cytokines and PGE2 in primary human monocytes: Cells were incubated with LPS (Sigma-Aldrich, Taufkirchen, Germany, 10 ng/ml) for 24 h. The cannabinoids (5 doses) were added 30 min before LPS treatment. After 24 h, supernatants were removed, centrifuged and investigated for IL-1beta, IL-8, IL-6, TNFalpha, MMP9, isoprostane, and PGE2 concentrations in EIAs (PGE2 and isoprostane, from Cayman/Biomol, Hamburg, Germany) or ELISAs (IL-1beta, Hiss, Freiburg, Germany; TNFalpha, IL-6 and IL-8, ImmunoTools, Frysoithe, Germany, MMP9, Biotechne, Wiesbaden, Germany) using manufacturer's protocol. The respective extinction was determined using a 96-well plate reader (Berthold, Offenburg, Germany). Each dose was analyzed 4 times in two buffy coats from 2 different donors (2 buffy coats used from 2 different healthy blood donors with final n=4 values).

primary human monocytes = test: Cell viability in human monocytes (Alamar Blue); type: cell-based; details: 24 h
Experimental: Cell cultures: Human primary monocytes were extracted from the whole blood of medically healthy volunteers, who provided written informed consent at the local blood bank (University Hospital of Freiburg, Germany), following a standardized protocol (gradient preparation, Lymphocytes separation medium, PAN Biotech, P04-60125, Aidenbach, Germany) using completely endotoxin-free cultivation. Using 50 ml tubes, 25 ml Pancoll was loaded with 25 ml of blood (buffy coats). The gradient was established by centrifugation at 1800 rpm, 20° C. for 40 min with slow acceleration and deceleration. Peripheral blood mononuclear cells in the interphase were carefully removed and re-suspended in 50 ml pre-warmed phosphate-buffered saline (PBS) (Pan Biotech, P04-36500), followed by centrifugation for 10 min at 1600 rpm and 20° C. The supernatant was discarded and the pellet washed in 50 ml PBS and centrifuged as described above. […] Enriched monocytes were then ready to be used for the experiments. […]
Cell viability: Cells were incubated with the cannabinoids (3 doses, n=4) for 24 h. Cytotoxicity was analyzed by Alamar Blue staining (formazan). […] The plate was then incubated at 37° C. for 2 h in a humidified 5% CO2 atmosphere, and the color reaction determined using a 96-well plate reader (Berthold, Offenburg, Germany, excitation 544 nm, emission 590 nm). […]

[4] = read-out: inhibition of Poly I:C-induced MMP1
[5] = read-out: inhibition of Poly I:C-stimulated MMP9
[6] = LPS 10 ng/ml, 24 h, read-out: inhibition of LPS-stimulated PGE2 release
[7] = LPS 10 ng/ml, 24 h, maximal effect, doses up to 25 μM

Structure (SMILES) | doses inhibiting IL-1-induced PGE2 [1] [µM] | doses inhibiting IL-1-stimulated IL-6 release [1] [µM] | doses inhibiting IL-1-stimulated IL-8 release [1] [µM] | inhibition of IL-1-induced PGE2 [1] | inhibition of IL-1-stimulated IL-6 release [1] | inhibition of IL-1-stimulated IL-8 release [1] | Ki (CB2 receptor) [nM] | inhibition at 25 µM [2, 4] [%] | inhibition at 25 µM [2, 5] [%] | inhibition of Poly I:C-stimulated TIMP1 [2] | doses inhibiting LPS-induced IL-6 ([3]; LPS 10 ng/ml, 24 h) [µM] | doses inhibiting LPS-induced IL-8 ([3]; LPS 10 ng/ml, 24 h) [µM] | inhibition at 25 µM [3, 6] [%] | doses inhibiting LPS-stimulated PGE2 release ([3]; LPS 10 ng/ml, 24 h) [µM] | doses inhibiting LPS-stimulated TNFalpha release ([3]; LPS 10 ng/ml, 24 h) [µM] | inhibition of LPS-stimulated TNFalpha release [3, 7] | other results
C=C(C)[C@H]1CCC(C)=C[C@@H]1c1c(O)cc(CCCCC)c(C(=O)OCC(O)CCC)c1O (single isomer, unassigned; (+)) [(+)-CBD-HPE, (+)-Cannabidiol hydroxypentylester] | 25 | ≥ 10 | ≥ 10 | 50% | 95% | 95% | 0.8 | 20 | 40 | 60% | ≥ 10 | 25 |  |  |  |  | Ki (CB1 receptor): 3.1 nM; CB1/CB2 selectivity (CB1 receptor; ratio of CB1-Ki to CB2-Ki): 3.9; doses increasing LPS-mediated IL-1beta ([3]; LPS 10 ng/ml, 24 h): 25 µM; doses inhibiting LPS-stimulated MMP9 ([3]; LPS 10 ng/ml, 24 h): 25 µM
C=C(C)[C@H]1CCC(C)=C[C@@H]1c1c(O)cc(CCCCC)cc1O [(+)-CBD, (+)-Cannabidiol] |  | ≥ 0.1 | ≥ 0.1 | more than 80% | more than 90% | more than 90% |  | ~40 | ~40 | ~70% |  | 25 | ~80 | ≥ 1 | ≥ 0.1 | around 80% | doses affecting cell viability (primary human monocytes): ≥ 25 µM; doses inhibiting Poly I:C-induced MMP1 [2]: 25 µM; doses inhibiting Poly I:C-stimulated MMP9 [2]: ≥ 5 µM; doses inhibiting Poly I:C-stimulated TIMP1 [2]: ≥ 5 µM
C=C(C)[C@H]1CCC(C)=C[C@@H]1c1c(O)cc(CCCCC)c(C(=O)OCCO)c1O [(+)-CBD-GE, (+)-Cannabidiol glycolester] | ≥ 5 | ≥ 5 | ≥ 5 | approx. 80% | around 95% | around 95% | 12.9 |  | 30 to 50 | 30-50% | ≥ 0.1 |  | ~80 | ≥ 0.1 | ≥ 0.1 | approx. 40% | inhibition at 25 µM ([3]; LPS 10 ng/ml, 24 h, read-out: inhibition of LPS-stimulated IL-1 release): ~40%; inhibition at 25 µM ([3]; LPS 10 ng/ml, 24 h, read-out: inhibition of LPS-stimulated isoprostane release): ~40%; doses inhibiting LPS-stimulated IL-1 release ([3]; LPS 10 ng/ml, 24 h): ≥ 0.1 µM; doses inhibiting LPS-stimulated isoprostane release ([3]; LPS 10 ng/ml, 24 h): ≥ 0.1 µM; inhibition of LPS-induced IL-6 [3, 7]: around 80%; enhancement of LPS-mediated MMP9, more than LPS values ([3]; doses of 5-25 μM): 20-60%
